From patent US8247211B2, “Glycopeptide antibiotics” (American Cyanamid Company, priority 2001, dated 2012)
≈ marks a conversion by molar mass, not a printed value.

Legend:
Experiment in all cases: In vitro antibacterial evaluation: minimum inhibitory concentration (MIC), broth dilution method
Assay type in all cases: cell-based
Staphylococcus sp. = details: for MIC Staphylococcus aureus (ATCC 29213): strain ATCC 29213; for MIC Staphylococcus aureus (GC 1131): strain GC 1131; for MIC Staphylococcus aureus (GC 4541): strain GC 4541; for MIC Staphylococcus aureus (GC 4542): strain GC 4542; for MIC Staphylococcus aureus-SMITH (GC 4543): strain GC 4543; for MIC Staphylococcus aureus (GC 4544): strain GC 4544; for MIC Staphylococcus aureus (GC 4545): strain GC 4545; for MIC Staphylococcus haemolyticus (GC 4546): strain GC 4546; for MIC Coagulase Negative Staphylococcus (GC 4547): strain GC 4547; for MIC Coagulase Negative Staphylococcus (GC 4548): strain GC 4548; for MIC Coagulase Negative Staphylococcus (GC 4549): strain GC 4549; for MIC Coagulase Negative Staphylococcus (GC 4551): strain GC 4551; for MIC Coagulase Negative Staphylococcus (ID-3941): strain ID-3941
Description: (§1) The minimum inhibitory concentration (MIC), the lowest concentration of the antibiotic which inhibits growth of the test organism, is determined by the broth dilution method using Muller-Hinton II […] (Baltimore Biological Laboratories) following the recommendations of the National Committee for Clinical Laboratory Standards [Methods for dilution antimicrobial susceptibility tests for bacteria that grow aerobically, approved standard M7-A2, National Committee for Clinical Laboratory Standards, Villanova, Pa].
(§2) An inoculum level of 5×10^5 CFU/mL, and a range of antibiotic concentrations (64-0.06 μg/mL) is used. […] The test organisms include a spectrum of Gram-positive bacteria comprised of Staphylococcus sp., Streptococcus sp. and Enterococcus sp. These organisms include recent clinical isolates that are resistant to methicillin, penicillin and/or vancomycin.

Enterococcus sp. = details: broth dilution, 5×10^5 CFU/mL, 18 hours at 35° C.
Description: as §1, §2

Streptococcus sp. = details: broth dilution, 5×10^5 CFU/mL, 18 hours at 35° C.
Description: as §1, §2

Escherichia coli = details: 5×10^5 CFU/mL, 18 hours at 35° C.
Description: as §1, §2

[1] = broth dilution, 18 hours at 35° C.

## CC(C)CC1OCC2OC(OC3C(CO)OC(Oc4ccc(CC5NC(=O)C(C(C)c6ccccc6)NC(=O)CNC(=O)C(CO)NC(=O)C(C(O)C6CNC(=N)N6C6OC(CO)C(O)C(O)C6O)NC(=O)C(C(O)C6CNC(=N)N6)NC5=O)cc4)C(O)C3O)C(O)C(O)C2O1 (stereo not drawn) [Example 107, Cyclo[glycyl-β-methylphenylalanyl-O-[4-O-[4,6-O-(3-methylbutylidene)hexopyranosyl]-hexopyranosyl]tyrosyl-3-(2-iminoimidazolidin-4-yl)seryl-3-(3-hexopyranosyl-2-iminoimidazolidin-4-yl)serylseryl]]
Staphylococcus sp.
  MIC Staphylococcus aureus (ATCC 29213): 1 µg/mL (≈ 0.733 µM)
  MIC Staphylococcus aureus (GC 1131): 2 µg/mL (≈ 1.47 µM)
  MIC Staphylococcus aureus (GC 4541): 2 µg/mL (≈ 1.47 µM)
  MIC Staphylococcus aureus (GC 4542): 1 µg/mL (≈ 0.733 µM)
  MIC Staphylococcus aureus (GC 4544): 2 µg/mL (≈ 1.47 µM)
  MIC Staphylococcus aureus (GC 4545): 1 µg/mL (≈ 0.733 µM)
  MIC Staphylococcus haemolyticus (GC 4546): 1 µg/mL (≈ 0.733 µM)
  MIC Coagulase Negative Staphylococcus (GC 4547): 1 µg/mL (≈ 0.733 µM)
  MIC Coagulase Negative Staphylococcus (GC 4548): 1 µg/mL (≈ 0.733 µM)
  MIC Coagulase Negative Staphylococcus (GC 4549): 1 µg/mL (≈ 0.733 µM)
  MIC Coagulase Negative Staphylococcus (GC 4551): 1 µg/mL (≈ 0.733 µM)
  MIC Coagulase Negative Staphylococcus (ID-3941): 1 µg/mL (≈ 0.733 µM)
Staphylococcus sp.; [1]
  MIC Staphylococcus aureus (ATCC 29213): 1 µg/mL (≈ 0.733 µM)
  MIC Staphylococcus aureus (GC 1131): 2 µg/mL (≈ 1.47 µM)
  MIC Staphylococcus aureus (GC 4541): 2 µg/mL (≈ 1.47 µM)
  MIC Staphylococcus aureus (GC 4542): 1 µg/mL (≈ 0.733 µM)
  MIC Staphylococcus aureus-SMITH (GC 4543): 1 µg/mL (≈ 0.733 µM)
  MIC Staphylococcus aureus (GC 4544): 2 µg/mL (≈ 1.47 µM)
  MIC Staphylococcus aureus (GC 4545): 1 µg/mL (≈ 0.733 µM)
  MIC Staphylococcus haemolyticus (GC 4546): 1 µg/mL (≈ 0.733 µM)
  MIC Coagulase Negative Staphylococcus (GC 4547): 1 µg/mL (≈ 0.733 µM)
  MIC Coagulase Negative Staphylococcus (GC 4548): 1 µg/mL (≈ 0.733 µM)
  MIC Coagulase Negative Staphylococcus (GC 4549): 1 µg/mL (≈ 0.733 µM)
  MIC Coagulase Negative Staphylococcus (GC 4551): 1 µg/mL (≈ 0.733 µM)
  MIC Coagulase Negative Staphylococcus (ID-3941): 1 µg/mL (≈ 0.733 µM)
Staphylococcus sp.; 18 hours at 35° C.
  MIC Staphylococcus aureus-SMITH (GC 4543): 1 µg/mL (≈ 0.733 µM)
Enterococcus sp.
  MIC Enterococccus avium (GC 4558): 8 µg/mL (≈ 5.87 µM)
  MIC Enterococccus faecalis (ATCC 29212): 4 µg/mL (≈ 2.93 µM)
  MIC Enterococccus faecalis (GC 4552): 4 µg/mL (≈ 2.93 µM)
  MIC Enterococccus faecalis (GC 4553): 8 µg/mL (≈ 5.87 µM)
  MIC Enterococccus faecalis (GC 4554): 4 µg/mL (≈ 2.93 µM)
  MIC Enterococccus faecium (GC 2243): 8 µg/mL (≈ 5.87 µM)
  MIC Enterococccus faecium (GC 4556): 4 µg/mL (≈ 2.93 µM)
  MIC Enterococccus faecium (GC 4557): 2 µg/mL (≈ 1.47 µM)
  MIC Enterococcus faecalis (GC 2242): 4 µg/mL (≈ 2.93 µM)
Streptococcus sp.
  MIC Streptococcus agalactiae (GC 4564): 0.25 µg/mL (≈ 0.183 µM)
  MIC Streptococcus pneumoniae (GC 4565): <0.12 µg/mL
  MIC Streptococcus pyogenes (ID-3187): 0.25 µg/mL (≈ 0.183 µM)
Escherichia coli
  MIC Escherichia coli (ATCC 25922): 64 µg/mL (≈ 46.9 µM)
